{"source": "patent US20240350443A1", "about": "“COMPOSITION, FORMULATION, PREPARATION METHOD AND USE FOR GLUTATHIONE PRECURSOR” (priority 2021, published 2024)", "format_in_all_cases": "in vivo, Kunming mice", "key": {"[1]": {"test_system": "mouse peritoneal macrophages", "experiment": "Phagocytosis of chicken erythrocytes by mouse peritoneal macrophages", "conditions": "x ± s, n = 10", "excerpt": "(§1) In the experiment, the effect of the composition on the immune system of mice was researched from four aspects of cellular immune function, humoral immune function, monocyte-macrophage function and NK cell activity.\n(§2) Test animals were as follows: male SPF-grade Kunming mice aged 4 weeks, with body weights of 18-22 g, available from Hubei Provincial Laboratory Animal Public Service Center, Hubei, China [certification No.: SCXK (E) 2020-0018].\n(§3) The experimental method was as follows: 400 mice were randomly divided into 5 groups, with 80 mice in each group, and each group was subjected to 5 kinds of immunoassays including body weight and organ/body ratio measurement, cellular immune function measurement, humoral immune function measurement, monocyte-macrophage function measurement, and NK cell activity measurement. For each immunoassay, 80 mice were tested and divided into 8 groups, namely a negative control group and experimental groups 1-7, with 10 mice in each group; distilled water was given to the negative control group, corresponding test substances (the dose of acetylcysteine or cysteine agent in each test substance was 500 mg/kg BW) were given to each experimental group, and the intragastric capacity was 20 mL/kg BW."}, "immune system of mice": {"test_system": "immune system of mice", "experiment": "Immunity enhancement function, overall determination", "conditions": "any two of four aspects positive"}, "aged mice": {"test_system": "aged mice", "experiment": "Oxidation resistance function experiment in aged mice", "conditions": "x ± s, n = 13", "excerpt": "In the experiment, the oxidation resistance effect of the composition was researched by detecting four indicators of MDA, protein carbonyl, antioxidant enzyme activity (GSH-PX or SOD) and reduced GSH content. If three of the four indicators were positive, the composition could be determined to have the oxidation resistance effect.\nTest animals were as follows: male SPF-grade Kunming mice aged over 10 months, with body weights of 40-60 g, available from Hubei Provincial Laboratory Animal Public Service Center, Hubei, China [certification No.: SCXK (E) 2020-0018].\nThe experimental method was as follows: 104 mice were randomly divided into 8 groups, namely, a negative control group and experimental groups 1-7 (i.e., the formula of the test samples adopted the formula of the above experimental groups 1-7), with 13 mice in each group.\nDistilled water was given to the blank control group, corresponding test substances (the dose of acetylcysteine or cysteine agent in each test substance was 500 mg/kg BW) were given to each experimental group, and the intragastric capacity was 20 mL/kg BW. After 30 days of continuous intragastric administration, blood was sampled from the inner canthus of each group of animals, a hemolysate was prepared, and the MDA content and the glutathione peroxidase (GSH-PX) activity were detected; the animals were sacrificed and the livers were taken as homogenates, 10% liver homogenates were prepared for reduced GSH and protein carbonyl determination, and 1% liver homogenates were prepared for superoxide dismutase (SOD) activity determination. Each detection kit was available from NanJing JianCheng Bioengineering Institute."}, "alcoholic liver damage [2]": {"test_system": "alcoholic liver damage", "experiment": "Liver protection function experiment: liver histopathology score (lipid droplets)", "conditions": "alcoholic liver damage mice; score 0-4 points per field; x ± s, 13 mice", "description": "Distilled water was given to the blank control group and the model control group, corresponding test substances (the dose of acetylcysteine or cysteine agent in each test substance was 500 mg/kg BW) were given to each experimental group according to the formula, and the intragastric capacity was 20 mL/kg BW. On day 30 of the experiment, the mice of the model control group and each experimental group were intragastrically administered with 14 mL/kg BW of 50% ethanol once, and distilled water with equal volume was given to the blank control group, and then the mice were fasted for 16 hours. The mice were sacrificed by cervical dislocation after weighing. […]\nThe areas of the fields of view occupied by various lesions in each field of view were respectively recorded, and the total lesion scores of the observed fields of view were accumulated. […]"}, "humoral immune function": {"test_system": "humoral immune function", "experiment": "Humoral immune function: antibody-producing cells and serum hemolysin level", "conditions": "mice; 500 mg/kg BW intragastric; x ± s, n = 10", "excerpt": "as §1, §2, §3"}, "alcoholic liver damage [3]": {"test_system": "alcoholic liver damage", "experiment": "Liver protection function experiment: MDA, reduced GSH and TG in liver homogenates", "excerpt": "In the experiment, the auxiliary protection effect of the composition of the present disclosure on alcoholic liver damage was researched by detecting three indicators of liver malondialdehyde (MDA) content, reduced glutathione (GSH) and triglyceride (TG) and histopathologic examination (wherein the lower the MDA and TG contents were, the higher the GSH content was, the better the liver protection effect was). If the three indicators of the liver MDA, the reduced GSH and the TG were positive, or any two of the three indicators of the liver MDA, the reduced GSH and the TG were positive and the histopathological examination result was positive, the composition could be determined to have the auxiliary protection effect on alcoholic liver damage.\nTest animals were as follows: male SPF-grade Kunming mice aged 5 to 6 weeks, with body weights of 18-22 g, available from Hubei Provincial Laboratory Animal Public Service Center, Hubei, China [certification No.: SCXK (E) 2020-0018].\nThe experimental method was as follows: 117 mice were randomly divided into 9 groups, namely a blank control group, a model control group and experimental groups 1-7 (the formula of the test samples was referred to the formula of the experimental groups 1-7), with 13 mice in each group.\nDistilled water was given to the blank control group and the model control group, corresponding test substances (the dose of acetylcysteine or cysteine agent in each test substance was 500 mg/kg BW) were given to each experimental group according to the formula, and the intragastric capacity was 20 mL/kg BW. On day 30 of the experiment, the mice of the model control group and each experimental group were intragastrically administered with 14 mL/kg BW of 50% ethanol once, and distilled water with equal volume was given to the blank control group, and then the mice were fasted for 16 hours. The mice were sacrificed by cervical dislocation after weighing.\n0.5 g of liver was taken and added with normal saline to prepare a liver homogenate, and then the MDA, reduced GSH and TG were detected. The detection method and the calculation method for the MDA and reduced GSH were described according to the instruction of a kit from NanJing JianCheng Bioengineering Institute, and the TG was detected by using the Beckman Coulter AU680 Chemistry Analyzer."}, "[4]": {"conditions": "10% liver homogenates of aged mice, 30 days"}, "[5]": {"conditions": "alcoholic liver damage mice, 500 mg/kg BW acetylcysteine or cysteine intragastric, 30 days, x ± s, 13 mice"}}, "note": "Marks after values point to notes of the source that are not given here."}
{"smiles": "CC(=O)N[C@@H](CS)C(=O)O", "note": "[Experimental group 1, N-acetylcysteine]", "values": [{"measurement": "Phagocytic rate, phagocytosis of chicken erythrocytes", "setting": "[1]", "result": "33.88 ± 2.48^b %"}, {"measurement": "Immunity enhancement effect (determination)", "setting": "immune system of mice", "result": "had the immunity enhancement effect"}, {"measurement": "SOD", "setting": "aged mice; 1% liver homogenates of aged mice, 30 days", "result": "338.4 ± 44.9^bc U/mgprot"}, {"measurement": "MDA", "setting": "aged mice; 2% hemolysates of aged mice, 500 mg/kg BW intragastric 30 days", "result": "17.88 ± 2.55^bc nmol/ml"}, {"measurement": "GSH", "setting": "aged mice; [4]", "result": "30.05 ± 6.08^a mg/gprot"}, {"measurement": "Protein carbonyl", "setting": "aged mice; [4]", "result": "1.33 ± 0.35^ab nmol/mgprot"}, {"measurement": "GSH-PX", "setting": "aged mice; hemolysate of aged mice, 30 days", "result": "585.2 ± 24.2^a U/ml"}, {"measurement": "Liver histopathology score (fatty degeneration of hepatocytes)", "setting": "alcoholic liver damage [2]", "result": "1.46 ± 1.05^bc"}, {"measurement": "Number of hemolytic plaques (N)/number of whole splenocytes", "setting": "humoral immune function", "result": "161.71 ± 11.52^c"}, {"measurement": "Auxiliary protection effect on alcoholic liver damage (determination)", "setting": "alcoholic liver damage [3]; Technical Specification for Inspection and Evaluation of Health Food (2003 edition)", "result": "had an auxiliary protection effect on alcoholic liver damage"}, {"measurement": "MDA in liver homogenates", "setting": "alcoholic liver damage [3]; [5]", "result": "0.98 ± 0.28^bc nmol/mgprot"}, {"measurement": "Reduced GSH in liver homogenates", "setting": "alcoholic liver damage [3]; [5]", "result": "34.55 ± 9.48^bc mg/gprot"}, {"measurement": "TG in liver homogenates", "setting": "alcoholic liver damage [3]; [5]", "result": "1.52 ± 0.64^bc mmol/L"}]}
